In the assay the test system is Aorta. Description: Vasorelaxant activity in Sprague-Dawley rat aortic artery assessed as reduction in phenylephrine-induced contractions. The assay is classed as functional, tissue-based.

Structures can show the parent of a compound that is named as a salt. A value given as a limit tells only on which side of the number the result lay.

On to `CC[C@]12C=CCN3CC[C@]4(C(=C(C(=O)OC)C1)Nc1ccccc14)[C@@H]32` [TABERSONINE], for which the concentration giving a half-maximal response (EC50) (in general, the concentration at which the effect is half-maximal) is more than 10 µM.
On to `CC[C@]12CCCN3CCc4c(n(c5ccccc45)[C@@H](O)C1)[C@@H]32` [VINCANOL], for which the EC50 was more than 10 µM.
Take `CC[C@]12C=CCN3CCc4c(n(c5ccccc45)[C@@](O)(C(=O)OC)C1)[C@@H]32`: the EC50 was 1.9 µM.
The result for `CC[C@]12C=CCN3CCc4c(n(c5ccccc45)[C@](O)(C(=O)OC)C1)[C@@H]32` reads 3.8 µM; that for `CC[C@]12C=CCN3CCc4c(n(c5cc(OC)ccc45)[C@@](O)(C(=O)OC)C1)[C@@H]32`, 2.2 µM.
In the case of `CC[C@@]12CC(C(=O)OC)=C3Nc4cc(O)ccc4[C@@]34CCN(C(=O)[C@H]3O[C@H]31)[C@@H]24` it was more than 10 µM; in that of `C[C@H]1C(=O)[C@@]23C[C@@]14C=CCN1CC[C@@]2(c2ccccc2NC3=O)[C@@H]14`, more than 10 µM.
The result for `COC(=O)[C@@H]1C[C@@]23CCC[N+]4([O-])CC[C@@]5(c6ccccc6N[C@]15CC2)[C@H]34` (some centres not stated) reads more than 10 µM; that for `CC[C@]12C=CCN3CCc4c(n(c5cc(O)ccc45)[C@@](O)(C(=O)OC)C1)[C@@H]32`, 2.8 µM.
For the molecule `CC[C@]12CCCN3CC[C@]4(C(=C(C(=O)OC)C1)Nc1cc(O)ccc14)[C@@H]32`, the EC50 was more than 10 µM.
Regarding `CC[C@]12CCCN3CCc4c(n(c5ccccc45)[C@@H](OC)C1)[C@@H]32`, the concentration giving a half-maximal response (EC50) was more than 10 µM.
The result for `C[C@H](O)[C@@]12C[C@@H](C(N)=O)c3[nH]c4ccccc4c3CCN(C[C@H](O)[C@H]1O)C2=O` reads more than 10 µM; that for `CC[C@]12CC(=O)N3CC[C@]4(C(=C(C(=O)OC)C1)Nc1cc(O)ccc14)[C@@H]32`, more than 10 µM.
In the case of `Cc1ccc(N(CC2=NCCN2)c2cccc(O)c2)cc1` [PHENTOLAMINE MESYLATE] it was 0.1 µM; in that of `C[C@@H]1C(=O)O[C@]23N4CC=C[C@]12C[C@@H]1C(=O)Nc2ccccc2[C@@]13CC4`, more than 10 µM.
The result for `CC[C@]12C=CCN3CCc4c(n(c5cc(OC)ccc45)[C@](O)(C(=O)OC)C1)[C@@H]32` reads 1.9 µM.
With `CC[C@]12CCC[N+]3([O-])CC[C@]4(C(=C(C(=O)OC)C1)Nc1cc(O)ccc14)[C@H]23` (some centres not stated), the EC50 was more than 10 µM.
In the case of `COC(=O)[C@@H](C)[C@]12C=CCN3CC[C@@]4(c5ccccc5NC(=O)[C@H]4C1)[C@@H]32` it was more than 10 µM.
In the case of `CC[C@]12C=CC(=O)N3CC[C@]4(C(=C(C(=O)OC)C1)Nc1ccccc14)[C@@H]32` it was 0.8 µM; in that of `C[C@@H]1C(=O)[C@@]23C[C@@]14C=CCN1CC[C@@]2(c2ccccc2NC3=O)[C@@H]14`, more than 10 µM.
In the case of `CC[C@]12C=CCN3CCc4c(n(c5cc(O)ccc45)[C@](O)(C(=O)OC)C1)[C@@H]32` it was 2.4 µM; in that of `COC(=O)[C@@H]1C[C@@]23CCCN4CC[C@@]5(c6ccccc6N[C@]15CC2)[C@@H]43`, more than 10 µM.
